Reference: PMC10197018 (Pediatric blood & cancer, 2021)
Read-outs that look alike come from different tables or passages of the source. Values belong to the compound of their own block, whether it stands above or below them.

What was measured:
[1] = cited from earlier work
[2] = human, in vivo, po, 70 mg/m2
[3] = cited from earlier work; remark: listed apart in the source
solid tumors = conditions: cited from earlier work
colon carcinoma model = colon carcinoma model ref 34; cited from earlier work
[4] = Plasma pharmacokinetics of sorafenib given with irinotecan; conditions: pediatric patients, combination therapy
clinical = conditions: human, plasma, oral
[5] = single-agent sorafenib, same dose regimen ref 17; cited from earlier work
[6] = single agent, pediatric phase 1 trials ref 26, 27, 44

SMILES: CCc1c2c(nc3ccc(O)cc13)-c1cc3c(c(=O)n1C2)COC(=O)[C@]3(O)CC [SN38, 7-ethyl-10-hydroxy camptothecin]
extent of metabolic conversion from SN38 to SN38-G ([1]; adults ref 45, 46): 6.9–13.4
CMAX ([1]; oral irinotecan 60 mg/m^2 in adults ref 47): 7.4 ± 4.4 ng/mL
AUCINF ([1]; oral irinotecan study in adults ref 47): 58.7 ± 31 ng·h/mL
t1/2 ([1]; oral study in adults ref 47): 11.9 h
extent of metabolic conversion from SN38 to SN38-G ([1]; other pediatric reports ref 48, 49): 1.6–4.1
t1/2 ([1]; reported pediatric ranges ref 48): 7.3 to 18.5 h
mean extent of metabolic conversion from SN38 to SN38-G (oral irinotecan 70 mg/m^2 with sorafenib, pediatric patients): 3.73

SMILES: CCc1c2c(nc3ccc(O[C@@H]4O[C@H](C(=O)O)[C@@H](O)[C@H](O)[C@H]4O)cc13)-c1cc3c(c(=O)n1C2)COC(=O)[C@]3(O)CC [SN38-G]
AUCINF [2]: 62.1 ± 35.4 (57.0%) hr•ng/mL
CMAX [2]: 5.50 ± 3.38 (61.4%) ng/mL
Tmax [2]: 3.17 ± 1.09 (34.2%) hr
AUCINF ([1]; human, in vivo): 30.8 to 153 ng·h/mL
CMAX ([1]; in vivo, po, 60 mg/m2): 21.7 ± 15.2 ng/mL
AUCINF ([1]; in vivo, po): 356 ± 348 ng·h/mL

SMILES: CCc1c2c(nc3ccc(OC(=O)N4CCC(N5CCCCC5)CC4)cc13)-c1cc3c(c(=O)n1C2)COC(=O)[C@]3(O)CC [Irinotecan]
MTD of oral irinotecan with temozolomide and vincristine ([3]; 5 days for 2 weeks with temozolomide 100 mg/m^2/day ref 33): 35 mg/m^2/daily
MTD, short course oral irinotecan ([3]; daily for 5 days every 21 days, solid tumors, patients < 65 years of age ref 31): 65 mg/m^2/dose
MTD, protracted course of oral irinotecan ([3]; daily × 5 days for 2 weeks, pediatric patients, with cefixime ref 30): 60 mg/m^2/dose
MTD of oral irinotecan with temozolomide and vincristine ([3]; daily × 5 days with temozolomide 150 mg/m^2/day ref 33): 90 mg/m^2/daily
MTD, protracted course of oral irinotecan with temozolomide ([3]; patients with neuroblastoma ref 32): 60 mg/m^2/day
absolute oral bioavailability ([1]; irinotecan solution ref 47): 17%
AUC(0-inf) (human, plasma, po, 70 mg/m2): 594 ± 299 ng·h/mL
CMAX (human, plasma, po, 70 mg/m2): 93.9 ± 60.8 ng/mL
Tmax (human, plasma, po, 70 mg/m2): 1.97 ± 0.85 h
mean dose-normalized CMAX (CMAX/D) (oral irinotecan 70 mg/m^2 with sorafenib, range 0.18–3.49): 1.14 ng/mL/mg
dose-normalized AUCINF (AUCINF/D) (oral irinotecan 70 mg/m^2 with sorafenib, range 1.7–19.5): 7.1 ng·h/mL/mg
mixed response and/or SD rates (solid tumors; [6]): 20–26%
partial response rates (solid tumors; [6]): 0 to 6%
growth delay (colon carcinoma model): 71%

age-dependent difference in AUC [4]: no significant age-dependent difference
Tmax (clinical): 6.4 h
SMILES: CNC(=O)c1cc(Oc2ccc(NC(=O)Nc3ccc(Cl)c(C(F)(F)F)c3)cc2)ccn1 [Sorafenib]
Tmax [5]: 4.98 h
mean CMAX/D [5]: 8.33 ng/mL/mg
prolonged SD (solid tumors; phase 2, Wilms tumor, 2 of 10 patients ref 18): 20%
responses (solid tumors; phase 2, cohort with rhabdomyosarcoma ref 18): no responses
growth delay (colon carcinoma model): 100%
